In patent US4169096A, “Antibiotic compounds” (priority 1977, dated 1979):
Converted amounts (≈) assume the structure as drawn. Like-named read-outs stand apart in the source and are kept apart here.

Columns and labels:
Stability in solution = type: physicochemical
[1] = system: Staphylococcus aureus #52-34; assay: MIC, serial two-fold agar dilution, aerobic bacteria; type: cell-based
C. perfringens A9635 [2] = assay: microbe, parasite or virus in culture; type: cell-based, Clostridium perfringens
[3] = system: Bacteroides fragilis A20929; assay: microbe, parasite or virus in culture
C. perfringens A9635 [4] = assay: microbe, parasite or virus in culture; type: cell-based; details: Clostridium perfringens
[5] = system: Neisseria meningitidis A21496; assay: MIC, serial two-fold agar dilution, aerobic bacteria; type: cell-based; details: GC medium (Eiken)
[6] = system: Fusobacterium varium ATCC 8501; assay: microbe, parasite or virus in culture; details: ATCC8501
Micrococcus flavus = assay: MIC, serial two-fold agar dilution, aerobic bacteria; type: cell-based

## COC(=O)C1C(C)OC2(C)CC(=O)C3OC12OC(C(C)/C=C(C)/C=C/C(=O)C1=C(O)CN(C)C1=O)C3C (centres unmarked) [Bu-2313A]
Stability in solution; acidic solution
  stability: stable
Stability in solution; alkaline solution, N/10 NaOH, room temperature, overnight
  stability: inactivated
In vivo; ip, LD50, ip
  LD50: 14 mg/kg
In vivo; po, LD50, po
  LD50: 90 mg/kg
In vivo; sc, LD50, sc
  LD50: 90 mg/kg
[1]
  MIC: 12.5 µg/mL (≈ 24.2 µM)
C. perfringens A9635 [2]; Clostridium perfringens, A9635, read-out: MIC in GAM agar
  MIC: 0.1 µg/mL (≈ 0.193 µM)
C. perfringens A9635 [2]; inoculum size 7 × 10^6 cell/ml
  MIC in GAM agar: 0.1 µg/mL (≈ 0.193 µM)
[3]
  MIC: 0.2 µg/mL (≈ 0.386 µM)
C. perfringens A9635 [4]; A9635, read-out: MIC in GAM broth, inoculum size […] 10^5 cell/ml
  MIC: 0.1 µg/mL (≈ 0.193 µM)
C. perfringens A9635 [4]; A9635, read-out: MIC in GAM broth, inoculum size […] 10^6 cell/ml
  MIC: 100 µg/mL (≈ 193 µM)
[5]
  MIC: 3.1 µg/mL (≈ 5.99 µM)
[6]
  MIC: 0.1 µg/mL (≈ 0.193 µM)
Micrococcus flavus
  MIC: 6.3 µg/mL (≈ 12.2 µM)
